For two molecules, Activity results are on record in ChEMBL document CHEMBL4396870, “Pharmacological Chaperones for the Treatment of α-Mannosidosis” (J Med Chem, 2019).

Changes are numbered by the printed parent chain.

In assay [1] the test system is T1, Lysosomal alpha-mannosidase (Homo sapiens), O00754 [H72L].
T1 sequence (whole entry): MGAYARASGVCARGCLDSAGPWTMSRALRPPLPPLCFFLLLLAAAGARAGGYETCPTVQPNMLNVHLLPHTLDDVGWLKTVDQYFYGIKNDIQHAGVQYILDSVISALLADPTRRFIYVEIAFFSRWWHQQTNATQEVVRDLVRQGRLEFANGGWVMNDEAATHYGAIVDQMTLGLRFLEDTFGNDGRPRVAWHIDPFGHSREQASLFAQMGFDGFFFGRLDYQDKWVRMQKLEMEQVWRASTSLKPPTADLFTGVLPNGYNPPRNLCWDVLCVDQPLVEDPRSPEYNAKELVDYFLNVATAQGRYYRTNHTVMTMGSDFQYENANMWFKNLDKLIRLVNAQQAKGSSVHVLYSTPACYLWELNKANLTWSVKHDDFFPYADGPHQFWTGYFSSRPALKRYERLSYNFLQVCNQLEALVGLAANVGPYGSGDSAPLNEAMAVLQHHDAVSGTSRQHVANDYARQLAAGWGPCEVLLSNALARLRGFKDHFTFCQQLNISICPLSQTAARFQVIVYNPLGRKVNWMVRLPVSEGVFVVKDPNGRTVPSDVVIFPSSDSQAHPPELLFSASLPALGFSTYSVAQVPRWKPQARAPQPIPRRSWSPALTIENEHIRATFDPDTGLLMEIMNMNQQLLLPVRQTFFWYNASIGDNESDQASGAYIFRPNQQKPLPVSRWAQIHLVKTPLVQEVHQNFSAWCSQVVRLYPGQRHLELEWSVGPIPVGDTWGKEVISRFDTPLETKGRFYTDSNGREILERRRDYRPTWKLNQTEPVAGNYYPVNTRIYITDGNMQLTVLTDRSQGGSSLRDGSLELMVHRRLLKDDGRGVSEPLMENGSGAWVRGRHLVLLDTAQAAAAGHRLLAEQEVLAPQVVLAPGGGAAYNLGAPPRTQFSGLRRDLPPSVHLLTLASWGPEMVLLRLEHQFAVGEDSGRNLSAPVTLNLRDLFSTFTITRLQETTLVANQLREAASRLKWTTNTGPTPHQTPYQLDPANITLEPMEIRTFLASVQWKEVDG
Briefly: Chaperone activity at human Lysosomal alpha-mannosidase H72L mutant transfected in human […] knockout HAP1 cells assessed as enzyme activity enhancement at 0.2 uM incubated for 96 hrs relative to control.

For assay [2], the system named is T2, Lysosomal alpha-mannosidase (Homo sapiens), O00754 [R916C].
T2 sequence (whole entry): T1 sequence (whole entry) with L72H, R916C
The assay is described as follows: Chaperone activity at human Lysosomal alpha-mannosidase R916C mutant transfected in human […] knockout HAP1 cells assessed as enzyme activity enhancement at 20 uM incubated for 96 hrs relative to control.

Take `CC(C)(C)OC(=O)NCCCCCCCCCN[C@@H]1[C@@H](O)[C@@H](O)[C@H](O)[C@H]2COC(=O)N21`: the Activity in assay [1] was determined as 0%; in assay [2], 63%.

Turning to `COC[C@H]1O[C@@H]2O[C@H]3[C@H](OC)[C@@H](OC)[C@@H](O[C@H]4[C@H](OC)[C@@H](OC)[C@@H](O[C@H]5[C@H](OC)[C@@H](OC)[C@@H](O[C@H]6[C@H](OC)[C@@H](OC)[C@@H](O[C@H]7[C@H](OC)[C@@H](OC)[C@@H](O[C@H]8[C@H](OC)[C@@H](OC)[C@@H](O[C@H]1[C@H](OC)[C@H]2OC)O[C@@H]8COC)O[C@@H]7COC)O[C@@H]6COC)O[C@@H]5COCc1cn(CCCCCCN[C@@H]2[C@@H](O)[C@@H](O)[C@H](O)[C@H]5COC(=O)N52)nn1)O[C@@H]4COC)O[C@@H]3COC`, the Activity in assay [1] is 48%; in assay [2] it was 11%.
